Data reported in US20100048457A1, “GLYCOPROTEIN FOR TREATING CHRONIC OBSTRUCTIVE PULMONARY DISEASES” (Guangzhou Konzern Pharmacetuical Co. Ltd, priority 2007, published 2010).

What was measured:
[1] = tested on: ciliary movement in trachea mucous of rabbits; test: Ciliary movement in trachea mucous; design: species or system rabbit; key to Ciliary movement: +++: All ciliary active in field of vision:; ++: ⅓~⅔ ciliary active in field of vision:; +: Less than ⅓ ciliary active in field of vision:; −−: All ciliary inactive in field of vision:; conditions: Ach, Dosage (g/L) 0.1
Method: The trachea mucous is exposed and washed by Ringer's solution (37° C.), then observe the sample by anatomical lens.
Add an ink into trachea mucous, the ink will move to one way (towards larynx), measure the velocity by micrometer and stopwatch, then calculate the moving velocity of mucus moving (second/2 mm).

[2] = tested on: model animal with emphysema and pulmonary hypertension; test: Experimental emphysema and pulmonary hypertension model; format: in vivo, golden hamster
Method: Preparation of model animal with emphysema and pulmonary hypertension: choose 75 from 90 male golden hamster randomly, 100-150 g each, to make model mouse. The model-building is performed on elected 75 animals under intraperitoneal anesthesia. Then open the mouse and exposure its throat, insert a pipe and inject the medicine fluid (60 U/100 g weight) into the body through the pipe, then shake the animal to let the medicine equality. Animals are wake in several hours, and feed normally. Other 15 golden hamster are acted as normal control group (Group A), the same volume of saline is injected in each trachea of each animal.
After perfusion of the medicine by gavage, animals are killed to measure the following:
Right Systolic Pressure (RSP): animals are cut in the neck to expose the right jugular vein, then insert the pipe into the right jugular vein to right ventricle, the pipe also connects the physiological monitor (RM-6300, Japan) for blood pressure measuring. The right carotic artery is also exposed and cannulated for blood pressure measuring.
Right Ventricle Hypertrophy Index (RVHI): kill the animal by bleeding, open the chest and bring the heart out, then cut the right ventricle down. Wash the heart by saline, absorb the water by filter paper, and then weight the right ventricle, and weight the total weight of the left ventricle and atrioventricular septalium. RVHI=weight of right ventricle/(total weight of left ventricle and atrioventricular septalium)
Pneumonic bronchoalveolar lavage fluid analyse: isobarical lavage machine is infused with Locke's solution, 37° C., the level of bottom is 60-100 cm higher than the T pipe. Kill the animal and open its chest, separate and cut down the trachea, and then bring out the trachea and the lung together, place in the Locke's solution, 37° C. Extrude the air out of the lung, and ligate the trachea with sleeve and connect with the T pipe. Open the T pipe to let Locke's solution flow into the lung, adjust the velocity of flow to about 25 ml/min. Concentrate the lavage 400 g by the centrifugal for 10 minutes, remove the supernatant, then add physiological saline into the deposit to make the cell suspend. Count the number of cells of bronchoalveolar lavage fluid ([…]) by inverted microscope, four times for one sample. Count the number of cells (/ml/g) of bronchoalveolar lavage fluid (BALF). Dye the smear of the suspend with HE, then count the ratio of macrophage in cell types.
Statistic treatment: data is expressed by x±s, and analyzed by one-way ANOVA, and compare with each group by Newman-Keuls method, P<0.05 meants distinct difference.

IL-4 = IL-4 in blood serum and BALF of asthmatic guinea pig (ELISA); format: in vivo; conditions: aminophylline group
Method: (§1) 11) IL-2, IL-4 assaying box for ELISA: provided by Shenzhen Jing Mei Co., Ltd.
(§2) The isobarical lavage machine is infused with Locke's solution, 37° C., the level of bottom is 60-100 cm higher than the T pipe. Guinea pigs are narcosis under intraperitoneal anesthesia by 1.5 ml 1% pentobarbital. Take 2 ml blood from cervical artery for detection of inflammatory factors. Kill the animal and open its chest, separate and cut down the trachea, and then bring out the trachea and the lung together, place in the Locke's solution, 37° C. Extrude the air out of the lung, and ligate the trachea with sleeve and connect with the T pipe. Open the T pipe to let Locke's solution flow into the lung, adjust the velocity of flow to about 25 ml/min. Take 5 ml lavage fluid for detection of inflammatory factors. When the velocity of flow is stable, animals are given 0.5% ovalbumin to stimulate the twitching of bronchia. After 30 minutes, observe and record the flux per minute, 6-10 minutes.

IL-2 = IL-2 in blood serum and BALF of asthmatic guinea pig (ELISA); format: in vivo; conditions: aminophylline group
Method: as §1, §2

[3] = tested on: isolated bronchitis in contractive state; test: Lung overfall of isolated bronchitis in contractive state, before and after dosing; design: species or system guinea pig; conditions: aminophylline group
Method: as §2
After 6-minute stimulating, the lung overfall of isolated bronchitis becomes stable.

[4] = tested on: model mouse with chronic bronchitis; test: Cough of chronic bronchitis (SO2 stimulation); format: in vivo; conditions: Dextromethorphan 15 mg/kg (positive control, also dexamethason 1.2 mg/kg)
Method: Preparation of model mouse with chronic bronchitis: choose 90 white mice, 20-25 g each, male or female Divide the mice randomly into six groups. In normal control group, no S02 stimulation is given, mice are feeding normally. In other groups, the following SO2 stimulation is given: place a utensil with 0.5 g anhydrous sodium sulfite in an 8 L bell cover, and place mice of each group into the bell cover, and add 50% vitriol 5 ml into the utensil, and take out the mice after 2 minutes; Once every day, 21 days.
During the dosing, observe the whole condition of animals in each group, and give the above SO2 stimulation to them in one hour after the last dosing. Record the delitescence of cough of each animal, and record the times of cough of each animal in 3 minutes.

[5] = tested on: model mouse with acute bronchitis; test: Cough of acute bronchitis (SO2 stimulation); format: in vivo; conditions: Dextromethorphan 15 mg/kg oral
Method: Preparation of model mouse with acute bronchitis: choose white mice, 20-25 g each, male or female. Pre-select method: place a utensil with 0.5 g anhydrous sodium sulfite in an 1 L beaker, add 50% vitriol 5 ml into the utensil, and place mice of each group into the beaker after 15 seconds, and take out the mice after 30 seconds. The mouse which starts cough in 3 minutes is an eligible mouse. Record the delitescence of cough of each animal, and record the times of cough of each animal. […] During the dosing, observe the whole condition of animals in each group, and give the above SO2 stimulation to them for 30 seconds in one hour after the last dosing. Record the delitescence of cough of each mouse, and record the times of cough of each animal in 3 minutes.

[6] = tested on: Staphyloccocus aureus Rosenbach; test: Treatment of infection by Staphyloccocus aureus Rosenbach in vivo
Text: (§3) 2.10.1 select some bacterial related to acute pharyngitis, such as Staphyloccocus aureus Rosenbach, and α-hemolytic streptococcus, inject above bacterial into animals, such as mouse, by intraperitoneal dosing or subcutaneous injection, which will make certain animal death. Dosed before infecting the bacterial, and dosed after infecting the bacterial, the animals will be observed for eating, drinking, and movement.
(§4) Observe and record the eating, drinking, and movement in 4 days as the normal value. Besides of control group, animals in other groups are injected 0.5 ml Staphyloccocus aureus Rosenbach by intraperitoneal dosing or subcutaneous injection In the next day, animals are feed 5 days by gavage, twice every day. Observe the condition of eating, drinking, and movement, and mean growth rates, and then compare with control group.

[7] = tested on: α-hemolytic streptococcus; test: Experimental treatment of infection by α-hemolytic streptococcus in vivo; conditions: Ofloxacin 500 mg/kg
Text: as §3, §4
The other methods are the same as the section 2.10.1.

[8] = tested on: model rat with chronic bronchitis; test: Treatment of pneumonia, histology of trachea and pneumonic tissue; format: in vivo, SD rat; conditions: positive group, dexamethason 1.2 mg/kg (FIG. 5), gavage 10 days
Method: Preparation of model rat with chronic bronchitis: choose 60 SD rats, 250-300 g each, male or female. Divide the rats randomly into six groups, one is normal control group, the other five groups are model groups which are modeling according to section 2.4.
During the dosing, observe the whole condition of animals in each group, and carry out the following procedures in ten days after the last dosing: The rats are narcosis under intraperitoneal anesthesia by 0.4 ml/100 g 10% chloral hydrate, and put on the operating table, open the neck and chest, bring out the trachea and pneumonic tissue, and then observe the condition of the sample. The sample is fixed by 10% formalin solution, and embedded by paraffin, and cut into slices, and dyed by HE. The inflammatory pathological changes are observed by microscope, including the integrality of epidermis, thickness of glands, infiltration of inflammatory cells in tracheal mucous, follicular lymph, and thickness of tracheal wall.

[9] = Ofloxacin 500 mg/kg, gavage twice every day

CC(=O)OCC[N+](C)(C)C.[Cl-] [Ach, Acetylcholine chloride]
Ciliary movement [1]: +++ | Moving velocity ([1]; ink on trachea mucous): 5.36 ± 0.64 second/2 mm

Cn1c(=O)c2[nH]cnc2n(C)c1=O [Aminophylline]
MS ([2]; aminophylline positive control group): 96.7 ± 9.6% | RVHI ([2]; aminophylline positive control group, gavage): 28.62 ± 8.81% | BALF ([2]; cells in bronchoalveolar lavage fluid, aminophylline positive control group): 364.8 ± 95.7 /mm^3 | pathological changes of emphysema ([2]; comparing with the model group, aminophylline group): non-obviously improvement | IL-4 in BALF (IL-4): 26.81 ± 7.76 b pg/ml | IL-4 in serum (IL-4): 1.78 ± 1.56 b pg/ml | amount of IL-4 in blood serum and BALF (IL-4; summary of table 9): decreases obviously | IL-2 in BALF (IL-2): 0.13 ± 0.08 b pg/ml | IL-2 in serum (IL-2): 1.45 ± 0.86 b pg/ml | amount of IL-2 in blood serum and BALF (IL-2; summary of table 9): decreases obviously | lung overfall of isolated bronchitis in contractive state, After dosing [3]: 17.13 ± 3.08 | lung overfall of isolated bronchitis in contractive state, Before dosing ([3]; baseline before dosing): 9.45 ± 1.86 | lung overfall of isolated bronchitis in contractive state, After dosing ([3]; listed as aminophylline): increases obviously

COc1ccc2c(c1)[C@]13CCCC[C@@H]1[C@H](C2)N(C)CC3 [Dextromethorphan]
Delitescence ([4]; delitescence of cough): 17.70 ± 4.521 | Times of Cough ([4]; in 3 minutes): 77.60 ± 9.88 | Delitescence ([5]; delitescence of cough): 30.40 ± 9.91 | Times of Cough ([5]; in 3 minutes): 35.20 ± 5.65

CC1COc2c(N3CCN(C)CC3)c(F)cc3c(=O)c(C(=O)O)cn1c23 (centres unmarked) [Ofloxacin]
After infection, dringking, Day 1 [6, 9]: 2.7 mL | After infection, dringking, Day 2 [6, 9]: 3.2 mL | After infection, dringking, Day 3 [6, 9]: 3.0 mL | After infection, dringking, Day 4 [6, 9]: 3.5 mL | After infection, dringking, Day 5 [6, 9]: 4.3 mL | After infection, eating, Day 1 [6, 9]: 1.9 g | After infection, eating, Day 2 [6, 9]: 2.5 g | After infection, eating, Day 3 [6, 9]: 3.2 g | After infection, eating, Day 4 [6, 9]: 3.6 g | After infection, eating, Day 5 [6, 9]: 3.9 g | Survive ([6]; of 15 animals, Ofloxacin group): 15 | After infection, dringking, Day 1 [7]: 2.3 mL | After infection, dringking, Day 2 [7]: 3.6 mL | After infection, dringking, Day 3 [7]: 3.8 mL | After infection, dringking, Day 4 [7]: 3.8 mL | After infection, dringking, Day 5 [7]: 4.2 mL | After infection, eating, Day 1 [7]: 2.1 g | After infection, eating, Day 2 [7]: 2.3 g | After infection, eating, Day 3 [7]: 2.9 g | After infection, eating, Day 4 [7]: 3.2 g | After infection, eating, Day 5 [7]: 4.5 g

C[C@@H]1C[C@H]2[C@@H]3CCC4=CC(=O)C=C[C@]4(C)[C@@]3(F)[C@@H](O)C[C@]2(C)[C@@]1(O)C(=O)CO [dexamethason]
inflammatory pathological changes of trachea and pneumonic tissue (microscope) [8]: obviously different from the model control group
